Source: patent US10570179B2, “Substituted urea depsipeptide analogs as activators of the CLPP endopeptidase” (priority 2016, dated 2020)
Converted amounts (≈) assume the structure as drawn. Where two headings read alike, the source gives them in different places. Numbered stars: 1 amine (or outer) side, 2 acyl side, 3 side chain; on linkers, the order of the positions; unused ones are H or OH. Bridge positions count the residues as written; N and C are the ends. Square brackets hold non-standard residues; d marks the D form. Peptide text beside a SMILES is read from it. * marks the point of attachment. Phe(3-Me) = Cc1cccc(C[C@H](N)C(=O)O)c1; Pro(4S-Me) = C[C@@H]1CN[C@H](C(=O)O)C1; X4 = O=C1CN([*:1])[C@H](C(=O)[*:2])CN1; Pro(4R-Me) = C[C@H]1CN[C@H](C(=O)O)C1; Hyp = O=C(O)[C@@H]1C[C@@H](O)CN1; NH(3-Cl-phenyl) = Clc1cccc(N*)c1; aThr = C[C@H](O)[C@H](N)C(=O)O; Pip = O=C(O)[C@@H]1CCCCN1; CO = O=C([*:1])[*:2]; X2 = Fc1cc(N*)ccc1Cl

Columns and labels:
[1] = test system: MRSA NRS70; assay: Minimal inhibitory concentration, microbroth dilution; type: cell-based; conditions: Staphylococcus aureus
Outline: (§1)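 Following CLSI M7-A7 microbroth dilution, twofold serial dilutions of compound (top final concentration 200 μM) were combined with an equal volume of broth inoculum at about 10^5 cfu/mL. Plates were incubated aerobically at 37 °C overnight, and the MIC was the lowest concentration preventing visible growth.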

[2] = test system: S. aureus USA 300; assay: as above; type: cell-based; conditions: Staphylococcus aureus
Outline: as §1

[3] = test system: S. aureus ATCC 29213; assay: as above; type: cell-based; conditions: Staphylococcus aureus
Outline: as §1

[4] = test system: E. faecails; assay: as above; type: cell-based; conditions: Enterococcus faecalis
Outline: as §1

[5] = test system: S. aureus ΔClpP; assay: as above; type: cell-based, Staphylococcus aureus; conditions: MIC; ClpP inactivated
Outline: as §1

[6] = molecular target: T1, S. aureus ClpP (Sa-ClpP) (Staphylococcus aureus, UniProt Q2G036); assay: Casein-BODIPY digestion assay (ClpP activation); type: biochemical
T1 construct: made in house; host or cells: E. coli BL21 (DE3)
T1 sequence (Q2G036 whole entry): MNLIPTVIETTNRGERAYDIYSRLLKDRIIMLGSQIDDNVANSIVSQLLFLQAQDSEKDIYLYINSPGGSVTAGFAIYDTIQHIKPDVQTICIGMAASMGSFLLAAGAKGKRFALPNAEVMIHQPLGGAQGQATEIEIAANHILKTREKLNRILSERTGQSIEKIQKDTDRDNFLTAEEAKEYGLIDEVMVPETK

Cc1cccc(C[C@H](NC(=O)Nc2cccc(Cl)c2)C(=O)N[C@@H]2C(=O)N3CCC[C@H]3C(=O)N3CC(=O)NC[C@H]3C(=O)N[C@@H](C)C(=O)N3C[C@H](C)C[C@H]3C(=O)O[C@H]2C)c1 [Compound 76, (S)-2-(3-(3-CHLOROPHENYL)UREIDO)-3-(M-TOLYL)-N-((6AS,12S,13S,15AS,17R,21S,23AS)-13,17,21-TRIMETHYL-3,6,11,15,20,23-HEXAOXOOCTADECAHYDRO-2H,6H,11H,15H-PYRAZINO[2,1-I]DIPYRROLO[2,1-C:2′,1′-L][1]OXA[4,7,10,13]TETRAAZACYCLOHEXADECIN-12-YL)PROPANAMIDE] ({NH(3-Cl-phenyl)-CO}-[Phe(3-Me)][aThr]P[X4]A[Pro(4R-Me)]; ester 2-C)
MIC ([1]; read-out: Minimal Inhibitory Concentrations (μM) MRSA NRS70, MIC): > 20 µM
MIC ([2]; USA300, read-out: Minimal Inhibitory Concentrations (μM) S. aureus USA 300, MIC): > 20 µM
MIC ([3]; ATCC29213, read-out: Minimal Inhibitory Concentrations (μM) S. aureus ATCC 29213, MIC): > 20 µM
MIC ([4]; read-out: Minimal Inhibitory Concentrations (μM) E. faecails, MIC): > 20 µM
Minimal Inhibitory Concentrations (μM) S. aureus ΔClpP [5]: >20 µM
EC50 [6]: 5.02 µM

Cc1cccc(C[C@H](NC(=O)Nc2ccc(Cl)c(F)c2)C(=O)N[C@@H]2C(=O)N3C[C@H](O)C[C@H]3C(=O)N3CCCC[C@H]3C(=O)N[C@@H](C)C(=O)N3C[C@@H](C)C[C@H]3C(=O)O[C@H]2C)c1 [Compound 77, (S)-2-(3-(4-CHLORO-3-FLUOROPHENYL)UREIDO)-N-((2S,6S,8AS,14AS,16R,20S,21S,23AS)-16-HYDROXY-2,6,21-TRIMETHYL-5,8,14,19,23-PENTAOXOOCTADECAHYDRO-1H,5H,14H,19H-PYRIDO[2,1-I]DIPYRROLO[2,1-C:2′,1′-L][1]OXA[4,7,10,13]TETRAAZACYCLOHEXADECIN-20-YL)-3-(M-TOLYL)PROPANAMIDE] ({X2-CO}-[Phe(3-Me)][aThr][Hyp][Pip]A[Pro(4S-Me)]; ester 2-C)
MIC ([1]; MIC, read-out: Minimal Inhibitory Concentrations (μM) MRSA NRS70): 0.625 µM (≈ 0.525 µg/mL)
MIC ([2]; USA300, MIC, read-out: Minimal Inhibitory Concentrations (μM) S. aureus USA 300): 1.25 µM (≈ 1.05 µg/mL)
MIC ([3]; ATCC29213, MIC, read-out: Minimal Inhibitory Concentrations (μM) S. aureus ATCC 29213): 0.625 µM (≈ 0.525 µg/mL)
MIC ([4]; MIC, read-out: Minimal Inhibitory Concentrations (μM) E. faecails): 1.25 µM (≈ 1.05 µg/mL)
Minimal Inhibitory Concentrations (μM) S. aureus ΔClpP [5]: 5 µM
EC50 [6]: 0.45 ± 0.2 µM
